According to publication PMC9229798, “Antioxidant Activity and Cytotoxicity of Aromatic Oligosulfides” (Molecules, 2022):

Columns and labels:
[1] = Ferrous ions (Fe2+) chelating activity (FIC); conditions: for IC50: Fe2+ chelating activity; for FIC, % of Inhibition: compound 5 mM, ferrozine–Fe2+ complex formation
Text: Despite the important biological role of iron, it can cause various pathological diseases, such as neurodegenerative, liver and heart diseases, cancer, and diabetes. In addition, it is able to catalyze the Fenton reaction and lead to the formation of a highly reactive hydroxyl radical. In this regard, the process of transition metal chelation was studied as one of the possible mechanisms of the action of antioxidants. This assay was based on the reaction of binding Fe^2+ ions by the studied compounds under moderately acidic conditions (pH = 6). Unreacted Fe^2+ ions reacted with ferrozine to form a stable dark violet colored complex. […] The chelation of ferrous ions by compounds was estimated by method of Dinis et al.. Briefly, 10 μL of 2 mM FeCl2 was added to 20 μL of the investigated compound (5 mM) and 150 μL of EtOH. The reaction was initiated by the addition of 0.04 mL of 5 mM ferrozine solution. The mixture was left to stand at 35 °C for 10 min. The absorbance of the solution was thereafter measured at 562 nm. The percentage inhibition of ferrozine–Fe^2+ complex formation was calculated as [(A0 − As)/[…]] × 100, where A0 is the absorbance of the control, and As is the absorbance of the compound/standard. Na2EDTA was used as the positive control.

[2] = system: WI-38; assay: MTT assay; assay type: cell-based; conditions: Homo sapiens, 72 h, non-tumourigenic cells
Experimental: (§1) The antiproliferative activity of aromatic oligosulfides 1–6 was determined against human cell lines, including colon carcinoma HCT-116, breast adenocarcinoma MCF-7, lung adenocarcinoma A-549, colorectal carcinoma SW-480, and non-tumourigenic WI-38, using the MTT assay (Table 4). […] However, some selectivity for cancer cells was evident and the IC50 values for non-tumourigenic cells were slightly higher for compounds 1 and 2.
(§2) Cell survival was determined by the MTT [3-(4,5-[…])-2,5-diphenyl tetrazolium bromide] assay by Niks method with small modifications. HCT-116 (colon carcinoma), MCF-7 (breast adenocarcinoma), A-549 (lung adenocarcinoma) and SW-480 (colorectal carcinoma) human cancer cell lines and WI-38 (cell line composed of fibroblasts) were cultured in DMEM (PanEco, Moscow, Russia) with Glutamin (PanEco, Moscow, Russia) and antibiotics (PanEco, Moscow, Russia) in CO2 (5%) at 37 °C. The compounds were dissolved (20 mM) in DMSO and then added to the cell culture medium at the required concentration with a maximum DMSO content of 0.5 v/v%. At these concentrations, DMSO had no effect on cell viability, as was shown in the control experiments. Cells were cultured in 96-well plates (7000 cells/well) and treated with various concentrations (from […]) of the test compounds as well as doxorubicin at 37 °C for 72 h. Cell viability was determined using the MTT assay, which quantified dehydrogenase activity. Then, the cells were incubated at 37 °C for 50 min with a solution of MTT ([…], 5 mg × mL^−1) (Sigma-Aldrich, St. Louis, MO, USA). The supernatant was discarded, and cells were dissolved in DMSO ([…]). The optical density of the solution was measured at 570 nm with use of a multiwall-plate reader (Anthos Zenyth 2000rt, Biochrom, Cambridge, UK), and the percentage of surviving cells was calculated from the absorbance of untreated cells. Each experiment was repeated at least three times, and each concentration was tested in at least three replicates. Data were presented as a graph of the percentage of surviving cells versus the concentration of the test substances. The meanings of 50% inhibition concentration (IC50) with standard deviation were calculated using GraphPad Prism Version 5.03 for Windows (GraphPad Software, San Diego, CA, USA).

[3] = DPPH radical scavenging activity; conditions: compound solution 0.2 mM in MeOH, DPPH 0.1 mM, 40 min, 20 °C
Text: The redox activity of organosulfur compounds 1–6 can be assessed by the ability to interact with the stable radical 2,2-diphenyl-1-picrylhydrazyl (DPPH). The delocalization of the radical in the aromatic rings of DPPH ensures its high stability. Therefore, this method is widely used to determine the radical scavenging activity of compounds. It is known that there are two main mechanisms by which antioxidant molecules can deactivate free radicals: hydrogen atom transfer (HAT) and single electron transfer (SET). One of them may dominate depending on the conditions, the structure of the antioxidant and the type of analysis, but both will produce identical final products, despite the difference in mechanisms.
The free radical scavenging activity was evaluated using the stable radical 2,2-diphenyl-1-picrylhydrazyl (DPPH), according to the method described by Brand-Williams with a slight modification. Solutions of compounds in MeOH were studied at a concentration of 0.2 mM. The stock DPPH solution contained 0.2 mM of radical in MeOH. An amount of 0.1 mL of the test compound solution was added to 0.1 mL of DPPH solution (0.2 mM) in each cell so that the initial DPPH concentration in cells was 0.1 mM. The microplate was placed in a spectrophotometer and the decrease in the absorbance values of DPPH solution for 40 min at 20 °C was measured at λmax = 517 nm. The results were expressed as scavenging activity, calculated as follows: scavenging activity, % = [(A0 − A1)/A0] × 100, where A0 is the optical density of the control solution DPPH, and A1 is the optical density of the reaction mixture solution.

[4] = system: MCF-7; assay: MTT assay; assay type: cell-based, human; conditions: Homo sapiens, MCF7, 72 h
Experimental: as §1, §2

[5] = system: HCT-116; assay: MTT assay; assay type: cell-based, human; conditions: Homo sapiens, HCT-116, 72 h
Experimental: as §1, §2

[6] = system: A-549; assay: MTT assay; assay type: cell-based, human; conditions: Homo sapiens, A549, 72 h
Experimental: as §1, §2

[7] = system: SW-480; assay: MTT assay; assay type: cell-based, human; conditions: Homo sapiens, SW480, 72 h
Experimental: as §1, §2

IC50 [1] | IC50 [4] | IC50 [5] | IC50 [6] | IC50 [7] | Structure (SMILES) | FIC, % of Inhibition [1] | IC50 [2] | DPPH, % (scavenging activity) [3]
5620 ± 40 µM | 45.3 ± 3.1 µM | 22 ± 1.5 µM | 29.7 ± 6.1 µM | 39.4 ± 7.9 µM | Oc1ccc(SSc2ccc(O)cc2)cc1 [Compound 4, 4,4′-dihydroxydiphenyl disulfide] | 47.2 ± 1.5% | 28.7 ± 5.3 µM | 13.42 ± 0.02%
> 10000 µM | 30.5 ± 5.2 µM | 24.4 ± 2.3 µM | 29.6 ± 7.5 µM | 22.4 ± 3.8 µM | COc1ccccc1SSc1ccccc1OC [Compound 2, bis(2-methoxyphenyl) disulfide] | 7.1 ± 0.2% | 31.9 ± 5.2 µM | non active
3740 ± 20 µM | 34.8 ± 12.2 µM | 22.1 ± 1.7 µM | 39.2 ± 8.7 µM | 30.6 ± 5.6 µM | c1ccc(SSc2ccccc2)cc1 [Compound 5, diphenyl disulfide] | – | 33.7 ± 9.1 µM | non active
6100 ± 10 µM | > 50 µM | > 50 µM | > 50 µM | > 50 µM | CC(C)(C)c1cc(SSc2cc(C(C)(C)C)c(O)c(C(C)(C)C)c2)cc(C(C)(C)C)c1O [Compound 6, bis(3,5-di-tert-butyl-4-hydroxyphenyl) disulfide] | – | 115 ± 75 µM | 81.56 ± 0.07%
7760 ± 20 µM | 37.6 ± 3.7 µM | 18.8 ± 1.4 µM | 43.6 ± 10.1 µM | 23.8 ± 4.5 µM | c1ccc(SSSc2ccccc2)cc1 [Compound 1, diphenyl trisulfide] | 25.8 ± 1.1% | 52.7 ± 8.5 µM | non active
> 10000 µM | 37.7 ± 2.7 µM | 18.9 ± 2.1 µM | 15.5 ± 3.4 µM | 21.7 ± 2.4 µM | COc1ccc(SSc2ccc(OC)c(OC)c2)cc1OC [Compound 3, bis(3,4-dimethoxyphenyl) disulfide] | 7.5 ± 0.3% | 32.8 ± 5.4 µM | non active
